Data reported in US11931424B2, “Combination MCL-1 inhibitors with anti-body drug conjugates” (Gilead Sciences, Inc., priority 2021, dated 2024).
Where a name gives a salt, the structure may show the parent alone.

System: panel of breast cancer cell lines
Assay: Compound A with targeted agents and chemotherapies, 72-hour in vitro proliferation assays
Assay type: cell-based
Settings: 72-hour proliferation
[1] = AU565 cell line, compound A × partner
[2] = BT-20 cell line, compound A × partner
[3] = CAL-51 cell line, compound A × partner
[4] = CAL-85-1 cell line, compound A × partner
[5] = CAL-120 cell line, compound A × partner
[6] = CAL-148 cell line, compound A × partner
[7] = CAMA-1 cell line, compound A × partner
[8] = DU-4475 cell line, compound A × partner
[9] = EVSA-T cell line, compound A × partner

CC(C)NC[C@@H](C(=O)N1CCN(c2ncnc3c2[C@H](C)C[C@H]3O)CC1)c1ccc(Cl)cc1 [GDC-0068]
Best CI [1]: 0.88
Bliss Volume [1]: 5.42
HSA volume [1]: 2.46
Loewe Volume [1]: 1.85
Synergy Score [1]: 6.93
Best CI [2]: 0.15
Bliss Volume [2]: 14.37
HSA volume [2]: 13.36
Loewe Volume [2]: 11.91
Synergy Score [2]: 26.99
Best CI [3]: 0.66
Bliss Volume [3]: 1.90
HSA volume [3]: 2.22
Loewe Volume [3]: 2.48
Synergy Score [3]: 1.93
Best CI [4]: 0.22
Bliss Volume [4]: −1.63
HSA volume [4]: 2.26
Loewe Volume [4]: 1.63
Synergy Score [4]: 4.37
Best CI [5]: 0.04
Bliss Volume [5]: −1.18
HSA volume [5]: −0.50
Loewe Volume [5]: 0.09
Synergy Score [5]: 1.05
Best CI [6]: 0.20
Bliss Volume [6]: 15.98
HSA volume [6]: 11.23
Loewe Volume [6]: 11.35
Synergy Score [6]: 22.09
Best CI [7]: 0.11
Bliss Volume [7]: 26.60
HSA volume [7]: 14.33
Loewe Volume [7]: 13.52
Synergy Score [7]: 27.46
Bliss Volume [8]: −5.18
HSA volume [8]: −7.77
Loewe Volume [8]: −5.05
Synergy Score [8]: 0.20
Best CI [9]: 0.27
Bliss Volume [9]: 38.10
HSA volume [9]: 10.77
Loewe Volume [9]: 8.56
Synergy Score [9]: 18.16
Best CI (HCC38, compound A × partner): 1.04
Bliss Volume (HCC38, compound A × partner): 3.63
HSA volume (HCC38, compound A × partner): 6.49
Loewe Volume (HCC38, compound A × partner): 5.61
Synergy Score (HCC38, compound A × partner): 5.92
Best CI (HCC70, compound A × partner): 0.30
Bliss Volume (HCC70, compound A × partner): 19.29
HSA volume (HCC70, compound A × partner): 14.42
Loewe Volume (HCC70, compound A × partner): 13.10
Synergy Score (HCC70, compound A × partner): 27.63
Best CI (HCC1143, compound A × partner): 0.56
Bliss Volume (HCC1143, compound A × partner): 1.41
HSA volume (HCC1143, compound A × partner): −1.97
Loewe Volume (HCC1143, compound A × partner): 1.22
Synergy Score (HCC1143, compound A × partner): 3.73
Best CI (HCC1569, compound A × partner): 0.24
Bliss Volume (HCC1569, compound A × partner): 9.34
HSA volume (HCC1569, compound A × partner): 10.52
Loewe Volume (HCC1569, compound A × partner): 10.52
Synergy Score (HCC1569, compound A × partner): 15.41
Best CI (HCC1806, compound A × partner): 0.83
Bliss Volume (HCC1806, compound A × partner): 4.78
HSA volume (HCC1806, compound A × partner): −2.22
Loewe Volume (HCC1806, compound A × partner): 2.14
Synergy Score (HCC1806, compound A × partner): 2.21
Best CI (HCC1937, compound A × partner): 0.44
Bliss Volume (HCC1937, compound A × partner): 8.88
HSA volume (HCC1937, compound A × partner): 6.08
Loewe Volume (HCC1937, compound A × partner): 8.48
Synergy Score (HCC1937, compound A × partner): 6.18
Best CI (HCC1954, compound A × partner): 0.16
Bliss Volume (HCC1954, compound A × partner): 19.16
HSA volume (HCC1954, compound A × partner): 18.41
Loewe Volume (HCC1954, compound A × partner): 17.07
Synergy Score (HCC1954, compound A × partner): 33.91
Best CI (HCC2218, compound A × partner): 0.13
Bliss Volume (HCC2218, compound A × partner): 10.70
HSA volume (HCC2218, compound A × partner): 8.89
Loewe Volume (HCC2218, compound A × partner): 7.71
Synergy Score (HCC2218, compound A × partner): 22.09
Best CI (HDQ-P1, compound A × partner): 1.46
Bliss Volume (HDQ-P1, compound A × partner): −1.34
HSA volume (HDQ-P1, compound A × partner): −1.27
Loewe Volume (HDQ-P1, compound A × partner): −2.21
Synergy Score (HDQ-P1, compound A × partner): 1.94
Best CI (HMC-1-8, compound A × partner): 0.26
Bliss Volume (HMC-1-8, compound A × partner): 17.75
HSA volume (HMC-1-8, compound A × partner): 12.01
Loewe Volume (HMC-1-8, compound A × partner): 12.08
Synergy Score (HMC-1-8, compound A × partner): 21.76
Best CI (JIMT-1, compound A × partner): 0.26
Bliss Volume (JIMT-1, compound A × partner): 2.76
HSA volume (JIMT-1, compound A × partner): 1.18
Loewe Volume (JIMT-1, compound A × partner): 1.53
Synergy Score (JIMT-1, compound A × partner): 1.19
Synergy Score (KPL-1, compound A × partner): 10.58

Nc1ccn([C@@H]2O[C@H](CO)[C@@H](O)C2(F)F)c(=O)n1 [Gemcitabine Hydrochloride]
Best CI [1]: 0.56
Bliss Volume [1]: 10.13
HSA volume [1]: 3.57
Loewe Volume [1]: 2.71
Synergy Score [1]: 9.40
Best CI [2]: 0.70
Bliss Volume [2]: 4.35
HSA volume [2]: 4.94
Loewe Volume [2]: 3.32
Synergy Score [2]: 11.12
Best CI [3]: 0.47
Bliss Volume [3]: 3.26
HSA volume [3]: 3.22
Loewe Volume [3]: 3.49
Synergy Score [3]: 5.10
Best CI [4]: 0.58
Bliss Volume [4]: 9.98
HSA volume [4]: 8.91
Loewe Volume [4]: 7.81
Synergy Score [4]: 10.96
Best CI [5]: 0.21
Bliss Volume [5]: −5.00
HSA volume [5]: −5.87
Loewe Volume [5]: −4.98
Synergy Score [5]: 0.88
Best CI [6]: 0.36
Bliss Volume [6]: 19.19
HSA volume [6]: 20.88
Loewe Volume [6]: 20.22
Synergy Score [6]: 35.99
Best CI [7]: 0.06
Bliss Volume [7]: 26.55
HSA volume [7]: 18.50
Loewe Volume [7]: 18.89
Synergy Score [7]: 40.36
Bliss Volume [8]: −3.76
HSA volume [8]: −3.58
Loewe Volume [8]: −2.68
Synergy Score [8]: 0.17
Best CI [9]: 1.07
Bliss Volume [9]: 9.65
HSA volume [9]: 2.02
Loewe Volume [9]: 1.29
Synergy Score [9]: 5.11
Best CI (HCC38, compound A × partner): 0.51
Bliss Volume (HCC38, compound A × partner): 21.72
HSA volume (HCC38, compound A × partner): 8.18
Loewe Volume (HCC38, compound A × partner): 6.75
Synergy Score (HCC38, compound A × partner): 14.50
Best CI (HCC70, compound A × partner): 0.26
Bliss Volume (HCC70, compound A × partner): 18.66
HSA volume (HCC70, compound A × partner): 18.52
Loewe Volume (HCC70, compound A × partner): 17.52
Synergy Score (HCC70, compound A × partner): 26.37
Best CI (HCC1143, compound A × partner): 0.15
Bliss Volume (HCC1143, compound A × partner): 4.32
HSA volume (HCC1143, compound A × partner): 8.39
Loewe Volume (HCC1143, compound A × partner): 7.81
Synergy Score (HCC1143, compound A × partner): 9.41
Best CI (HCC1569, compound A × partner): 0.68
Bliss Volume (HCC1569, compound A × partner): 3.74
HSA volume (HCC1569, compound A × partner): 6.80
Loewe Volume (HCC1569, compound A × partner): 6.28
Synergy Score (HCC1569, compound A × partner): 5.52
Best CI (HCC1806, compound A × partner): 0.13
Bliss Volume (HCC1806, compound A × partner): 17.89
HSA volume (HCC1806, compound A × partner): 18.06
Loewe Volume (HCC1806, compound A × partner): 17.74
Synergy Score (HCC1806, compound A × partner): 30.81
Best CI (HCC1937, compound A × partner): 0.45
Bliss Volume (HCC1937, compound A × partner): 2.34
HSA volume (HCC1937, compound A × partner): 0.77
Loewe Volume (HCC1937, compound A × partner): 2.36
Synergy Score (HCC1937, compound A × partner): 2.33
Best CI (HCC1954, compound A × partner): 0.28
Bliss Volume (HCC1954, compound A × partner): 3.78
HSA volume (HCC1954, compound A × partner): 5.17
Loewe Volume (HCC1954, compound A × partner): 5.09
Synergy Score (HCC1954, compound A × partner): 7.13
Best CI (HCC2218, compound A × partner): 0.36
Bliss Volume (HCC2218, compound A × partner): 5.46
HSA volume (HCC2218, compound A × partner): 4.02
Loewe Volume (HCC2218, compound A × partner): 2.80
Synergy Score (HCC2218, compound A × partner): 6.54
Best CI (HDQ-P1, compound A × partner): 0.40
Bliss Volume (HDQ-P1, compound A × partner): −3.49
HSA volume (HDQ-P1, compound A × partner): −0.19
Loewe Volume (HDQ-P1, compound A × partner): 0.42
Synergy Score (HDQ-P1, compound A × partner): 2.05
Best CI (HMC-1-8, compound A × partner): 0.19
Bliss Volume (HMC-1-8, compound A × partner): 24.97
HSA volume (HMC-1-8, compound A × partner): 9.34
Loewe Volume (HMC-1-8, compound A × partner): 8.40
Synergy Score (HMC-1-8, compound A × partner): 17.19
Best CI (JIMT-1, compound A × partner): 0.05
Bliss Volume (JIMT-1, compound A × partner): 4.37
HSA volume (JIMT-1, compound A × partner): 3.74
Loewe Volume (JIMT-1, compound A × partner): 3.50
Synergy Score (JIMT-1, compound A × partner): 1.80
Synergy Score (MCF7 cells, Compound A × partner agent): 11.61
